Where “and” joins values, the source holds several entries; their conditions need not be identical. Equal entries are not always repeated.
molecular target: Nonstructural protein 3 (Zika virus, UniProt A0A024AXB9); assay: Functional biochemical assay to identify treatments for viral infectious disease that targets Zika NS2B-NS3 protease. Utilizing a direct enzyme activity measurement method, reading the fluorescence intensity is used to characterize the relative potency of inhibitors as IC50.; design: species or system PRVABC59
Sequence (A0A024AXB9 whole entry): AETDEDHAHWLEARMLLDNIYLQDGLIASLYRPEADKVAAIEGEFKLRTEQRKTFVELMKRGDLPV

Row | SMILES | IC50
1 | Cn1nccc1-c1cc(NC(=O)c2cc(F)cc3[nH]ncc23)cc2c1CNC2 | 0.042 µM and 0.029 µM
2 | NCc1ccc(CNC(=O)[C@@H](NC(=O)OCc2ccccc2)c2ccc(OCc3ccccc3)cc2)cc1 | 14.2 µM and 11.5 µM
3 | Cc1cc(C)c([C@@H](CC(=O)Nc2cccc(CN)c2)NC(=O)OCc2ccccc2)cc1C | 5.67 µM and 6.27 µM
4 | NCc1cccc(NC(=O)C[C@@H](NC(=O)OCc2ccccc2)c2ccc(Cl)c(Br)c2)c1 | 14.4 µM and 12.8 µM
5 | CCn1c(=O)c(N2C[C@@H](CO)[C@H](c3cncn3C)C2)nc2ccccc21 | > 99.5 µM
6 | O=C(Nc1cc(Cl)cc(C(=O)Nc2ccc3c(c2)OCO3)c1)OCc1ccccc1 | > 99.5 µM
7 | Cc1cc(Cl)cc(C(=O)Nc2cccc(CN)c2)n1 | > 99.5 µM
8 | O=C(Nc1ccc2c(c1)CNC2)c1cc(Cl)cc2[nH]c(-c3ccc(F)cc3O)nc12 | 0.087 µM and 0.058 µM
9 | CC(C)c1nn(-c2ccccc2)cc1C(=O)Nc1cccc(CN)c1 | > 99.5 µM
10 | CC(C)[C@H](N)P(=O)(Oc1ccc(F)cc1)Oc1ccc(F)cc1 | > 99.5 µM
11 | O=C1NCc2ccccc2C12CCN(Cc1cc3ccc(F)cc3[nH]1)CC2 | > 99.5 µM
12 | Cc1c(C(=O)NCc2ccc(CN)cc2)cc(C2CC2)n1C | > 99.5 µM
13 | Cc1cc(F)cc(N(C)C(=O)c2ccc(C3(CN)CC3)cc2)c1 | > 99.5 µM
14 | O=C(Nc1ccc2c(c1)CNC2)c1ccc2scnc2c1 | 15 µM and > 25 µM
15 | NCc1cccc(NC(=O)[C@@H](NC(=O)OCc2ccccc2)c2ccc(-c3cncnc3)cc2)c1 | > 99.5 µM
16 | CC1(C)OB(c2cccc(F)c2CNC2CCCC2)OC1(C)C | > 99.5 µM
17 | O=C(O)c1cc2cc(-c3cc(Cl)cn4ncnc34)ccc2[nH]1 | > 99.5 µM
18 | Cn1ccnc1C(=O)N[C@H](C(=O)Nc1cccc(CN)c1)c1ccc(OCc2ccccc2)cc1 | > 99.5 µM
19 | CC(C)(CO)NC(=O)c1cc(Cl)cc(NC(=O)c2cc(Cl)ccc2O)c1 | > 99.5 µM

Row | SMILES | IC50
20 | Clc1cc([C@@H]2C[C@H]2c2cccc(-c3nn[nH]n3)c2)c2cn[nH]c2c1 | > 99.5 µM
21 | CN1CCn2nc(NC(=O)c3cc(Cl)cc(NC(=O)OCc4ccccc4)c3)cc2C1 | > 99.5 µM
22 | O=C(N[C@@H](C(=O)NCc1ccncc1)c1ccc(OCc2ccccc2)cc1)OCc1ccccc1 | > 99.5 µM
23 | CCn1cc(-c2ccccc2C(=O)OC)nc(N2CC[C@@H](CO)C2)c1=O | > 99.5 µM
24 | NCc1cccc(NC(=O)[C@@H]2CCC[C@]3(CCNC3=O)C2)c1 | > 99.5 µM
25 | CCn1ccnc(N2CC[C@@H](C(=O)NC)C2)c1=O | > 99.5 µM
26 | Cn1nc([C@@H]2CCCN2)nc1NC(=O)c1cc(Cl)cc(NC(=O)OCc2ccccc2)c1 | > 99.5 µM
27 | C=CC[C@H](Nc1cccc(-c2nn[nH]n2)c1)c1cc(Cl)cc2[nH]ncc12 | > 99.5 µM
28 | Cn1nc2c(c1NC(=O)[C@@H](NC(=O)OCc1ccccc1)c1ccc(OCc3ccccc3)cc1)CNC2 | > 99.5 µM
29 | CSCCNC(=O)[C@H](Nc1ccc2c(c1)CNC2)c1cc(Cl)cc(C2CC2)c1 | 0.062 µM and 0.049 µM
30 | N=C(N)Nc1ccc(NC(=O)Oc2ccccc2)cc1 | > 100 µM
31 | N[C@H]1CCc2cc(-c3ccn(-c4ccccc4)n3)ccc2C1 | > 99.5 µM
32 | NCc1cccc(NC(=O)c2nn(-c3ccccc3F)cc2Br)c1 | > 99.5 µM
33 | CC(C)n1cc(CNC(=O)[C@@H](NC(=O)OCc2ccccc2)c2ccc(OCc3ccccc3)cc2)cn1 | > 99.5 µM
34 | O=C1Cc2c(cccc2C(=O)Nc2ccc3c(c2)CNC3)N1 | 0.404 µM and 1.27 µM
35 | NCc1cccc(NC(=O)[C@H]2Cc3ccccc3N2C(=O)OCc2ccccc2)c1 | > 99.5 µM
36 | O=C(Nc1cc(Cl)cc(C(=O)NC2([C@H]3CCNC3)CC2)c1)OCc1ccccc1 | > 99.5 µM
37 | CCn1c(=O)c(N2C[C@H](O)C3(CC3)C2)nc2ccccc21 | > 99.5 µM

Other lines, results leading:

Row | IC50 | SMILES
38 | > 99.5 µM | CN(C)Cc1cc(NC(=O)[C@@H](NC(=O)OCc2ccccc2)c2ccc(OCc3ccccc3)cc2)ccc1Cl
39 | 22.4 µM | N#C[C@H](Nc1ccc2c(c1)CNC2)c1cccc2c1CCNC2=O
40 | > 99.5 µM | Cc1c(C(=O)Nc2cccc(C3CCNCC3)c2)cc(C2CC2)n1C
41 | > 99.5 µM | CCn1cc(C(=O)NC)nc(N2CC[C@@H](CO)C2)c1=O
42 | > 25 µM | CC1(C)CN(C(=O)Nc2ccc3c(c2)CNC3)CC(F)(F)C1
43 | > 99.5 µM | N#Cc1cccc2c(CN3CCC(c4cscn4)CC3)c[nH]c12
44 | > 25 µM | CC1([C@H]2CCCN(C(=O)Nc3ccc4c(c3)CNC4)C2)CC1
45 | 8.13 µM | CC(=Cc1cccc(CN)c1)c1cc(Cl)cc(NC(=O)OCc2ccccc2)c1
46 | 14.5 µM | NCc1cccc(NC(=O)CN(C(=O)OCc2ccccc2)c2ccc(OCc3ccccc3)cc2)c1
47 | > 99.5 µM | NCc1cccc(NC(=O)[C@@H](NC(=O)OCc2ccccc2)c2ccc(OCCN3CCCCC3)cc2)c1
48 | > 25 µM | O=C1Cc2c(cccc2C(=O)NC[C@H]2C[C@@H](n3cccn3)C2)N1
49 | 19 µM | NCCCc1cccc(NC(=O)c2cc(Cl)cc(NC(=O)OCc3ccccc3)c2)n1
50 | 24 µM | CCCN1C(=O)[C@](C#N)(Nc2ccc3c(c2)CNC3)c2ccccc21
51 | > 25 µM | Cc1c(C(=O)Nc2cc(C(=O)N3CCNC(=O)C3)ccn2)cc(C2CC2)n1C
52 | 57.8 µM | O=C(Nc1cc(Cl)cc(C(=O)Nc2cccc([C@H]3CCCCN3)c2)c1)OCc1ccccc1
53 | 40.2 µM | O=C(O)c1c(Br)sc2nnsc12
54 | 26.4 µM | CCc1cc(Br)cc2c(Cc3ccc(-c4nnn[nH]4)cc3)c[nH]c12
55 | 34 µM | NCc1cccc(NC(=O)[C@@H](NS(=O)(=O)CCc2ccccc2)c2ccc(OCc3ccccc3)cc2)c1
56 | 1.87 µM | NCc1cccc(NC(=O)c2cccc(CN)c2)c1
57 | 1.19 µM | O=C(Nc1ccc2c(c1)CNC2)c1cc(F)cc(-c2ccnc3c2CCO3)c1

Row | IC50 | SMILES
58 | 52.9 µM | NCc1cccc(NC(=O)c2cc(Cl)cc(CN3CCOCC3)c2)c1
59 | 8.99 µM | CCc1cc(C(=O)Nc2cccc(CN)c2)sc1-c1ccc(Cl)cc1
60 | 0.2 µM | CS(=O)(=O)c1cc2c(cc1NC(=O)c1cc(F)cc3[nH]ncc13)CNC2
61 | 19.9 µM | NCCCCc1ccc(NC(=O)c2cc(Cl)cc3[nH]ncc23)cc1
62 | 2.46 µM | CC(C)(C)c1ccc(Cl)cc1C(=O)Nc1ccc2c(c1)CNC2
63 | > 25 µM | Cc1c(C(=O)Nc2cc(-c3cccnc3)ccn2)cc(C2CCC2)n1C
64 | 8.05 µM | C[C@H](C1CC1)n1ncc2c(C(=O)Nc3ccc4c(c3)CNC4)cc(C3CC3)nc21
65 | 11.1 µM | CCOc1cccc(-c2ccc(S(=O)(=O)Nc3ccc(Cl)cc3C(=O)O)cc2C)c1
66 | 7.51 µM | O=C(Nc1cc(Cl)cc(C(=O)Nc2ccc([C@H]3CCCNC3)cc2)c1)OCc1ccccc1
67 | > 25 µM | O=C(Nc1ccc2c(c1)CNC2)c1ncc(Cc2ccccc2)s1
68 | 0.144 µM | NCCc1csc2cc(C(=O)Nc3ccc4c(c3)CNC4)ccc12
69 | 0.96 µM | O=C1CCc2c(cccc2C(=O)Nc2ccc3c(c2)CNC3)N1
70 | 1.13 µM | C[C@H]1Oc2c(cccc2C(=O)Nc2ccc3c(c2)CNC3)NC1=O
71 | 5.21 µM | N[C@H]1CCc2cc(NC(=O)c3cc(Cl)cc4[nH]ncc34)ccc21
72 | 17.3 µM | Cc1ccc(COc2ccc(S(=O)(=O)Nc3ccc(Cl)cc3C(=O)O)cc2)cc1
73 | 21.1 µM | O=C(Nc1ccc2c(c1)CNC2)c1ccnc2[nH]ccc12
74 | 61.4 µM | NCc1ccc2c(c1)CCC[C@H]2NCc1cc(Cl)cc2c1OCC2
75 | > 25 µM | Cc1c(C(=O)Nc2cc(C(=O)N(C)[C@H]3C[C@H](O)C3)ccn2)cc(C2CC2)n1C
76 | 17.5 µM | O=C(O)c1cc2c(cc1NS(=O)(=O)c1ccc(Oc3ccccc3Cl)cc1)CCC2
77 | 13.9 µM | O=C(Nc1ccc2c(c1)CNC2)c1ccc2ccncc2c1

— ChEMBL document CHEMBL5604062, “ASAP - ZIKV NS2B-NS3 protease fluorescence dose response” (2024)
